The test system of series [1] is Rattus norvegicus. Description: Ulcerogenicity in Rattus norvegicus albino (rat) at 0.9 mg/100 g/day, po qd for 3 successive days. It is filed as toxicity, organism-based. As to conditions: in vivo.
The test system of series [2] is Rattus norvegicus. Description: Anti-inflammatory activity inRattus norvegicus albino (rat) assessed as reduction in carrageenan-induced paw edema at 10 mg/kg, ip administered 1 hr prior to carrageenan-induced measured 1 to 4 hr post challenge relative to indomethacin. The series is classed as functional. Further details: scale not given: the % may be the effect or the level left. The conditions noted are these: route intraperitoneal.

Series [3] has as its system Rattus norvegicus. Briefly: Anti-inflammatory activity carrageenan-induced paw edema in Rattus norvegicus albino (rat) at 9 mg/kg, ip administered 1 hr prior to carrageenan-induced measured 1 to 4 hr post challenge relative to control. It is filed as functional. As to conditions: route intraperitoneal. Background: In the carrageenan paw model, swelling and tenderness develop within hours.

In series [4] the test system is Rattus norvegicus. Briefly: Anti-inflammatory activity carrageenan-induced paw edema in Rattus norvegicus albino (rat) assessed as paw thickness at 9 mg/kg, ip administered 1 hr prior to carrageenan-induced measured 4 hr post challenge. The series is classed as functional. As to conditions: route intraperitoneal.
Series [5] relates to Rattus norvegicus. Briefly: Anti-inflammatory activity carrageenan-induced paw edema inRattus norvegicus albino (rat) assessed as paw thickness at 9 mg/kg, ip administered 1 hr prior to carrageenan-induced measured 3 hr post challenge. The series is classed as functional. The conditions noted are these: route intraperitoneal.
The test system of series [6] is Rattus norvegicus. Description: Anti-inflammatory activity carrageenan-induced paw edema inRattus norvegicus albino (rat) assessed as paw thickness at 9 mg/kg, ip administered 1 hr prior to carrageenan-induced measured 2 hr post challenge. The series is classed as functional. As to conditions: route intraperitoneal.
The test system of series [7] is Rattus norvegicus. Briefly: Anti-inflammatory activity carrageenan-induced paw edema inRattus norvegicus albino (rat) assessed as paw thickness at 9 mg/kg, ip administered 1 hr prior to carrageenan-induced measured 1 hr post challenge. As to conditions: route intraperitoneal. The series is classed as functional.
The subject of series [8] is Rattus norvegicus. Briefly: Ulcerogenicity in Rattus norvegicus albino (rat) at 9 mg/kg/day, po qd for 3 successive days. The series is classed as toxicity, organism-based. Further details: route oral. The conditions noted are these: in vivo.
Series [9] concerns Rattus norvegicus. Briefly: Anti-inflammatory activity carrageenan-induced paw edema in Rattus norvegicus albino (rat) at 10 mg/kg, ip administered 1 hr prior to carrageenan-induced measured 1 to 4 hr post challenge relative to control. The series is classed as functional. As to conditions: route intraperitoneal.
Series [10] concerns Rattus norvegicus. Briefly: Anti-inflammatory activity carrageenan-induced paw edema in Rattus norvegicus albino (rat) assessed as paw thickness at 10 mg/kg, ip administered 1 hr prior to carrageenan-induced measured 4 hr post challenge. The series is classed as functional. The conditions noted are these: route intraperitoneal.
In series [11] the test system is Rattus norvegicus. Description: Anti-inflammatory activity carrageenan-induced paw edema in Rattus norvegicus albino (rat) assessed as paw thickness at 10 mg/kg, ip administered 1 hr prior to carrageenan-induced measured 3 hr post challenge. The series is classed as functional. As to conditions: route intraperitoneal.
Series [12] relates to Rattus norvegicus. Briefly: Anti-inflammatory activity carrageenan-induced paw edema in Rattus norvegicus albino (rat) assessed as paw thickness at 10 mg/kg, ip administered 1 hr prior to carrageenan-induced measured 2 hr post challenge. As to conditions: route intraperitoneal. It is filed as functional.
Series [13] deals with Rattus norvegicus. Description: Anti-inflammatory activity carrageenan-induced paw edema in Rattus norvegicus albino (rat) assessed as paw thickness at 10 mg/kg, ip administered 1 hr prior to carrageenan-induced measured 1 hr post challenge. The series is classed as functional. As to conditions: route intraperitoneal.

Consider `Cc1ccc(C)n1NC(=O)Cn1nnc2ccccc2c1=O`, for which the UI in the series with Rattus norvegicus [1] was 220. Further, the Activity came out at 34.046% in the series with Rattus norvegicus [2]; 65.95% with Rattus norvegicus [3]; 4.25 mm in the series with Rattus norvegicus [4]; 4.75 mm in the series on Rattus norvegicus [5]; 4.75 mm in the series on Rattus norvegicus [6]; 3.75 mm in the series with Rattus norvegicus [7].

`O=C(Cn1nnc2ccccc2c1=O)Nc1ccccc1` displayed a UI with Rattus norvegicus [1] of 300. The Activity in the series on Rattus norvegicus [2] worked out at 41.7838%; in the series on Rattus norvegicus [3], 58.22%; in the series with Rattus norvegicus [4], 3.8 mm; with Rattus norvegicus [5], 4.1 mm; in the series on Rattus norvegicus [6], 4.25 mm; in the series with Rattus norvegicus [7] it was 4.5 mm.

Consider `O=c1c2ccccc2nnn1Cc1nnc(Nc2ccccc2)o1`, for which the UI in the series on Rattus norvegicus [1] came out at 340. For the same compound, the Activity turned out to be 29.3016% in the series on Rattus norvegicus [2]; 70.7% in the series on Rattus norvegicus [3]; 5.25 mm in the series on Rattus norvegicus [4]; 4.62 mm in the series with Rattus norvegicus [5]; 4.2 mm with Rattus norvegicus [6]; 3.75 mm in the series on Rattus norvegicus [7].

Regarding `COc1ccc2c(c1)c(CC(=O)O)c(C)n2C(=O)c1ccc(Cl)cc1` [INDOMETHACIN], in the series with Rattus norvegicus [8], the UI is given as 450. In addition, the Activity is on record as 100% with Rattus norvegicus [9]; 3.75 mm with Rattus norvegicus [10]; 3.25 mm in the series with Rattus norvegicus [11]; 2.25 mm in the series on Rattus norvegicus [12]; 2.12 mm in the series with Rattus norvegicus [13].

Compound `O=c1c2ccccc2nnn1Cc1nnc(Nc2ccccc2)s1` registered a UI in the series with Rattus norvegicus [1] of 340. In addition, the Activity in the series with Rattus norvegicus [2] stood at 29.3016%; in the series with Rattus norvegicus [3], 70.7%; in the series on Rattus norvegicus [4], 5.25 mm; with Rattus norvegicus [5] it was 4.62 mm; with Rattus norvegicus [6], 4.2 mm; in the series with Rattus norvegicus [7] it was 3.75 mm.

`O=C(Cn1nnc2ccccc2c1=O)N/N=c1/scc(-c2ccccc2)n1-c1ccccc1` showed a UI in the series with Rattus norvegicus [1] of 300. In addition, the Activity with Rattus norvegicus [2] turned out to be 45.9377%; in the series with Rattus norvegicus [3] it was 54.06%; with Rattus norvegicus [4], 5.12 mm; with Rattus norvegicus [5], 5 mm; with Rattus norvegicus [6] it was 4.75 mm; in the series on Rattus norvegicus [7] it was 4 mm.

As for `Cc1cc(C)n(C(=O)Cn2nnc3ccccc3c2=O)n1`, in the series on Rattus norvegicus [1], the UI stood at 140. In addition, the Activity in the series on Rattus norvegicus [2] turned out to be 33.313%; with Rattus norvegicus [3], 66.69%; in the series on Rattus norvegicus [4] it was 3.75 mm; in the series with Rattus norvegicus [5], 3.5 mm; in the series on Rattus norvegicus [6], 2.75 mm; in the series on Rattus norvegicus [7] it was 2.12 mm.

In the series on Rattus norvegicus [1], `COc1ccccc1NC(=O)Cn1nnc2ccccc2c1=O` showed a UI of 210. Also, the Activity came out at 52.1686% with Rattus norvegicus [2]; 47.8314% in the series on Rattus norvegicus [3]; 4.25 mm in the series with Rattus norvegicus [4]; 4 mm with Rattus norvegicus [5]; 5.25 mm in the series on Rattus norvegicus [6]; 3.8 mm in the series on Rattus norvegicus [7].

For `CC(=O)c1ccc(NC(=O)Cn2nnc3ccccc3c2=O)cc1`, the UI in the series on Rattus norvegicus [1] was found to be 130. In addition, the Activity was found to be 47.7499% in the series on Rattus norvegicus [2]; 52.25% with Rattus norvegicus [3]; 4.37 mm in the series on Rattus norvegicus [4]; 3.37 mm with Rattus norvegicus [5]; 3.87 mm with Rattus norvegicus [6]; 3.87 mm in the series with Rattus norvegicus [7].

In turn, `COc1cccc(NC(=O)Cn2nnc3ccccc3c2=O)c1` displayed a UI with Rattus norvegicus [1] of 240. Moreover, the Activity in the series with Rattus norvegicus [2] was 38.7294%; in the series with Rattus norvegicus [3], 61.27%; in the series on Rattus norvegicus [4], 3.25 mm; with Rattus norvegicus [5] it was 3.25 mm; in the series on Rattus norvegicus [6], 3.12 mm; with Rattus norvegicus [7], 2.75 mm.

As for `Cc1cc(-c2ccccc2)n(C(=O)Cn2nnc3ccccc3c2=O)n1`, in the series with Rattus norvegicus [1], the UI was 120. Further, the Activity in the series with Rattus norvegicus [2] is reported as 54.2048%; in the series on Rattus norvegicus [3], 45.8%; in the series on Rattus norvegicus [4] it was 3.75 mm; in the series with Rattus norvegicus [5] it was 4.5 mm; with Rattus norvegicus [6] it was 4.37 mm; in the series on Rattus norvegicus [7], 3.25 mm.

For the compound `Cc1ccc(-c2cc(C(F)(F)F)nn2-c2ccc(S(N)(=O)=O)cc2)cc1` [CELECOXIB], the UI with Rattus norvegicus [8] is recorded as 120. Moreover, the Activity in the series with Rattus norvegicus [2] was 57.0556%; with Rattus norvegicus [3] it was 42.94%; in the series with Rattus norvegicus [4] it was 3.87 mm; in the series on Rattus norvegicus [5], 3.75 mm; in the series with Rattus norvegicus [6], 3.37 mm; in the series with Rattus norvegicus [7] it was 3.22 mm.

In the series on Rattus norvegicus [1], `Cc1ccc(NC(=O)Cn2nnc3ccccc3c2=O)cc1` displayed a UI of 140. Also, the Activity in the series with Rattus norvegicus [2] amounted to 36.7746%; in the series on Rattus norvegicus [3], 63.23%; in the series on Rattus norvegicus [4], 4.12 mm; with Rattus norvegicus [5], 4 mm; with Rattus norvegicus [6], 3.1 mm; with Rattus norvegicus [7], 2.62 mm.

In the series on Rattus norvegicus [1], `Cc1ccccc1NC(=O)Cn1nnc2ccccc2c1=O` gave a UI of 240. Also, the Activity in the series on Rattus norvegicus [2] is recorded as 33.9238%; with Rattus norvegicus [3], 66.08%; with Rattus norvegicus [4], 4.25 mm; with Rattus norvegicus [5], 4 mm; in the series with Rattus norvegicus [6], 4 mm; in the series with Rattus norvegicus [7], 4.4 mm.

Source of the values: ChEMBL document CHEMBL3045134, “Synthesis, molecular modeling and anti-inflammatory screening of new 1,2,3-benzotriazinone derivatives” (Med Chem Res, 2012).
